From patent publication US20160303089A1, “COMPOUND PERTAINING TO NEUROPOIESIS AND DRUG COMPOSITION” (KYOTO UNIVERSITY, priority 2013, published 2016) come the findings set out here.

Structures are written as SMILES.

The subject of assay [1] is neural stem cells in the dentate gyrus of the hippocampus. The assay can be described thus: Neurogenesis in dentate gyrus of hippocampus of mice (BrdU positive cells). Type of assay: in vivo, C57BL/6J mice. The following applies: oral, 30 mg/kg and 100 mg/kg for 10 or 30 days; depended on the dosage; compared to solvent control. Here is the method: The effect of the compound 2 on neurogenesis in animal individuals (rodents) was studied. The subgranular zone of the dentate gyrus of the hippocampus is a region where neurogenesis occurs. In this region, 5-bromo-2′-deoxyuridine (BrdU) was used as a cell proliferation marker to specifically detect proliferating cells and quantitatively compare the number of proliferating cells. Specifically, the experiments were performed in the following manner. The compound 2 was prepared with a carboxymethyl cellulose solvent and orally administered repeatedly to 9-week-old male C57BL/6J mice (each weighing 25 g) in a dosage of 30 mg/kg and 100 mg/kg for 10 or 30 days. On the last day of the administration, 150 mg/kg of BrdU were intraperitoneally injected into the mice, and the samples were collected 24 hours later by perfusion fixation. Then, coronal sections of 50 μm were prepared by a microtome. After the denaturation of DNA by 1.5 N hydrochloric acid, an anti-BrdU antibody was used to detect BrdU that had been incorporated into the proliferating neural stem cells.

Assay [2] concerns phosphorylation of tau protein. Briefly: Tau phosphorylation in brain, acute cold water stress model (western blotting). It is filed as in vivo. As to conditions: administered 30 minutes before cold water stress (10 minutes); brains collected 5 minutes later. Here is the method:
Further, the study was conducted to investigate whether the compounds 1 to 2 inhibited the DYRK activity in the animal individuals in vivo by using phosphorylation of tau protein due to acute cold water stress as a marker. The animals were exposed to cold water stress for 10 minutes, and their brains were collected 5 minutes later. Then, the phosphorylation of the tau protein in the brains was confirmed by western blotting. Consequently, the phosphorylation of the tau protein was enhanced by the acute cold water stress. When the compound 1 or the compound 2 was administered to the animal individuals 30 minutes before they underwent the cold water stress, the tau phosphorylation caused by the cold water stress was inhibited.
Background: A western blot detects proteins with antibodies after separation by electrophoresis.

For assay [3], the target named is T1, DYRK1B (Homo sapiens, UniProt Q9Y463).
T1 construct: expressed in transfected cells; host or cells: HEK293 Flp-In
T1 sequence (Q9Y463 whole entry, species assumed): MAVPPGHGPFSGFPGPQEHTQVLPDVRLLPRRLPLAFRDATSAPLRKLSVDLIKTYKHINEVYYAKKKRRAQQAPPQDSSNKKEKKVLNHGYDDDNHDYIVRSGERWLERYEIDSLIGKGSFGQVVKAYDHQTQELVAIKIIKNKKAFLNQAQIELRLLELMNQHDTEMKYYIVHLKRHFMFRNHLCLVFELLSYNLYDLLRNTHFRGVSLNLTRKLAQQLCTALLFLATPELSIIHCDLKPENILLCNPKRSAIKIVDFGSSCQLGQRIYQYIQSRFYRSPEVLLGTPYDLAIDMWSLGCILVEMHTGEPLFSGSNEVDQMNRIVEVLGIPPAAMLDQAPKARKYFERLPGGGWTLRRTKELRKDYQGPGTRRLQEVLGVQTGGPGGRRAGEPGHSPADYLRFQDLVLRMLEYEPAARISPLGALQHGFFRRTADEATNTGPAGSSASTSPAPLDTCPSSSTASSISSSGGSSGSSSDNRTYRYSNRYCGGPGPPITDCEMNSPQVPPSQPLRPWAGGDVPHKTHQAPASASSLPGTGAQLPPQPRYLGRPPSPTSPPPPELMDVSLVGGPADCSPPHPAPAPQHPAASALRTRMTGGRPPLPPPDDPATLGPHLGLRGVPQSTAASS
The assay can be described thus: Cyclin D1 expression in HEK293 Flp-In cell line with inducible DYRK expression (western blotting). Type of assay: cell-based. As to the method: (§1) Using cell lines that can induce the expression of DYRKIA, DYRKIB, and DYRK2 by the addition of a drug, the expression level of cyclin D1 was examined when DYRK was overexpressed (see FIG. 8). Specifically, the experiments were performed in the following manner.
(§2) A HEK293 Flp-In cell system was used to prepare cell lines that can induce the expression of each of DYRKIA, DYRK1B, and DYRK2 of the DYRK family by the addition of a drug. The cells were treated with the drug for 16 hours to induce the expression of DYRK, and then cultured in the presence of the compound 2 (5 μM) for 4 hours. After the cells were collected, the expression level of cyclin D1 was analyzed by western blotting (see FIG. 8).

Assay [4] deals with T2, DYRK2 (Homo sapiens, UniProt Q92630).
T2 construct: expressed in transfected cells; host or cells: HEK293 Flp-In
T2 sequence (Q92630 1-601): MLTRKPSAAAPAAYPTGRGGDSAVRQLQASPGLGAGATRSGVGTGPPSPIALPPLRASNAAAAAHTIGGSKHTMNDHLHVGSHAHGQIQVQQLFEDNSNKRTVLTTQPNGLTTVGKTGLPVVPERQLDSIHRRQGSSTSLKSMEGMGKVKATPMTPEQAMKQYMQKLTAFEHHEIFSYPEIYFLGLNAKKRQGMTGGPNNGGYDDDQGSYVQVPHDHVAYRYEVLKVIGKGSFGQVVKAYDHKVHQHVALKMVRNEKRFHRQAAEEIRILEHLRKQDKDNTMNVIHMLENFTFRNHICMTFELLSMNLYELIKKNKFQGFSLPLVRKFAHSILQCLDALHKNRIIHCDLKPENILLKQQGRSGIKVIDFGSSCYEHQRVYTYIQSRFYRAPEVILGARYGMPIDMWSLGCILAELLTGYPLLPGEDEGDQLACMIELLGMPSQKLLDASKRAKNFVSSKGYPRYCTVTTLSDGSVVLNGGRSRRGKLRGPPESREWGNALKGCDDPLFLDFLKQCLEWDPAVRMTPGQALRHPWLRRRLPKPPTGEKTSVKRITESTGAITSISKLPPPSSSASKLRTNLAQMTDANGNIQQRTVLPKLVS
Described as above. Type of assay: cell-based. As to the method:
as §1, §2

In assay [5] the target is T3, DYRKIA (Homo sapiens, UniProt Q13627).
T3 construct: expressed in transfected cells; host or cells: HEK293 Flp-In
Described as above. It is filed as cell-based. Here is the method: as §1, §2

Assay [6] deals with CLK3 (Homo sapiens, UniProt P49761). The assay can be described thus: In vitro assay of the inhibition of protein phosphorylation activity. It is filed as biochemical.
Sequence of CLK3 (P49761 whole entry, species assumed): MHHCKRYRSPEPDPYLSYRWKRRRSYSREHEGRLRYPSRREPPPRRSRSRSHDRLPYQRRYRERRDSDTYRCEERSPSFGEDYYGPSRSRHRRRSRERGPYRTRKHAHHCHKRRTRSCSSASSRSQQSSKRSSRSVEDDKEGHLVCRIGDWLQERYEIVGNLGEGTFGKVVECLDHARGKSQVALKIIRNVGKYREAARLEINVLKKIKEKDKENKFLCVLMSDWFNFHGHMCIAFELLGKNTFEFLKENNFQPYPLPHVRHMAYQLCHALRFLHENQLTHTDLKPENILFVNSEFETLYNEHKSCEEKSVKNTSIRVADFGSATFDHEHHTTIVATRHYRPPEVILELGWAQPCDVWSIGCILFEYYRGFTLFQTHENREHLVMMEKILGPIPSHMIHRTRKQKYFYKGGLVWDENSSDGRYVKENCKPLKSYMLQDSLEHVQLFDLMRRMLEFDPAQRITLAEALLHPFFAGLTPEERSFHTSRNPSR
Assay [7] has as its target CLK1 (Homo sapiens, UniProt P49759). The assay is described as above. It is filed as biochemical.
Assay [8] addresses T4, DYRK1A (Homo sapiens, UniProt Q13627). The assay is described as above. It is filed as biochemical.
Assay [9] addresses T5, DYRK3 (Homo sapiens, UniProt O43781).
T5 sequence (O43781 1-588): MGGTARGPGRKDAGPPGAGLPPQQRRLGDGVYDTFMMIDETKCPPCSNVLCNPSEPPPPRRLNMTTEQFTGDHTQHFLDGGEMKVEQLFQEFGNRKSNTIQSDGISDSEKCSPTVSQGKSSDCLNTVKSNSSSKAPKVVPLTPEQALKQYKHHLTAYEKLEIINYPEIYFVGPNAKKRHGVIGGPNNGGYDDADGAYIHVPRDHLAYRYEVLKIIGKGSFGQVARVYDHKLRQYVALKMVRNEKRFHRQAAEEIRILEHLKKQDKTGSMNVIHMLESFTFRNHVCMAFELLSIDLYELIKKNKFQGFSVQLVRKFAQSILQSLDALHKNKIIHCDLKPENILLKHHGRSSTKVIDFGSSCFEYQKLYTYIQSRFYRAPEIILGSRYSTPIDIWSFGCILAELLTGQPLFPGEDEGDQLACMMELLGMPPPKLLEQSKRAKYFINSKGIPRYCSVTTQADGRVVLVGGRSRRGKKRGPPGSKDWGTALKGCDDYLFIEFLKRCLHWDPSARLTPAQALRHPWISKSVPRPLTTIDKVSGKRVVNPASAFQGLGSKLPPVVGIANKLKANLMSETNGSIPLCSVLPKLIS
Described as above. Type of assay: biochemical.

In assay [10] the target is T2, DYRK2. The description is as above. It is filed as biochemical.
The target in assay [11] is CLK2 (Homo sapiens, UniProt P49760). Described as above. Type of assay: biochemical.
Sequence of CLK2 (P49760 whole entry, species assumed): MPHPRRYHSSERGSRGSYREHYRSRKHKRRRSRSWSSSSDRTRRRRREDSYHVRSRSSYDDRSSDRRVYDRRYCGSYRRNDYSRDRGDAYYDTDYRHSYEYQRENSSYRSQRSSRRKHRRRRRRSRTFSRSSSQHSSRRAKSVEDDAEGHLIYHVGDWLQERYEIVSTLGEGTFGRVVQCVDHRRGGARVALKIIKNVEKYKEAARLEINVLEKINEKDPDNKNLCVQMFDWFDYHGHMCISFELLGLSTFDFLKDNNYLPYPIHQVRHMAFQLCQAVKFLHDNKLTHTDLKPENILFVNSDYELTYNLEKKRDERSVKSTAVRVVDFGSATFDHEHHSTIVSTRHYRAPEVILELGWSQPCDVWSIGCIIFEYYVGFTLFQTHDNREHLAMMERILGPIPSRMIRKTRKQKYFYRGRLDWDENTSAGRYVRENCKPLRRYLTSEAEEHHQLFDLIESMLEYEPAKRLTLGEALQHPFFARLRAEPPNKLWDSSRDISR
In assay [12] the target is DYRKIB (Homo sapiens, UniProt Q9Y463). Described as above. Type of assay: biochemical.
Sequence of DYRKIB (Q9Y463 whole entry): as the sequence (Q9Y463 whole entry, species assumed) above
The target in assay [13] is T4, DYRK1A. The assay can be described thus: Tau phosphorylation in cell lines with induced expression of DYRK1A and tau protein (western blotting). As to conditions: compound for 4 hours after induced expression of DYRK1A and tau. It is filed as cell-based. Further details: dose or concentration left out as unconfirmed. As to the method:
Moreover, the study was conducted to investigate whether the compound 3 inhibited the DYRK activity in the cells in vivo by using phosphorylation of tau protein (substrate) as a marker. First, cell lines that can induce the expression of DYRK1A and a tau protein by a drug were established. The cell lines were subjected to the drug treatment to induce the expression of DYRKIA and the tau protein. Then, the cells were treated with the compound 3 […] for 4 hours. After the cells were collected, the phosphorylation of the tau protein was detected by western blotting. The results confirmed that the treatment of the cells with the compound 3 inhibited the tau phosphorylation.

Sequence of CLK1 (P49759 whole entry): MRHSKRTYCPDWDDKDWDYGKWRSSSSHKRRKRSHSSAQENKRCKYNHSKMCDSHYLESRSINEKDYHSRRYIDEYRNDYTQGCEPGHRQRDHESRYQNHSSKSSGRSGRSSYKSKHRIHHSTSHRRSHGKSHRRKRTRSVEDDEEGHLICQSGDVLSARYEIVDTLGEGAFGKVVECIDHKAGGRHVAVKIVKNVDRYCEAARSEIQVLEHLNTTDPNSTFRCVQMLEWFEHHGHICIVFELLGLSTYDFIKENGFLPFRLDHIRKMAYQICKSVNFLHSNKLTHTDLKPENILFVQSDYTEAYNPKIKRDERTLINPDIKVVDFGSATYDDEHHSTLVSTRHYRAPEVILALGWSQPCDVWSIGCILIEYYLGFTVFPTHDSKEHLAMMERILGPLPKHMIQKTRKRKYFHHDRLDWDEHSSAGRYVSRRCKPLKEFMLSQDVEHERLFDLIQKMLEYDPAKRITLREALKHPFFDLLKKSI

Turning to `CCN1/C(=C/C(C)=O)Sc2ccc3occc3c21` [compound 2, (Z)-1-[1-ethyl-7,8-benzofuro[4,5-d]thiazol-2(1H)-ylidene]propan-2-one], the “number of proliferating cells (BrdU positive) in the subgranular zone of the dentate gyrus of the hippocampus” value in assay [1] is given as “significantly large”. For the same compound, the “tau phosphorylation caused by the cold water stress (brain)” value in assay [2] is reported as “inhibited”. In addition, the “expression level of cyclin D1” value in assay [3] (DYRK1B cell line, compound 5 μM for 4 hours, lane 6 of FIG. 8) is recorded as “increased”; in [4] (DYRK2 cell line, compound 5 μM for 4 hours, lane 10 of FIG. 8), “increased”; in [5] (DYRKIA cell line, compound 5 μM for 4 hours, lane 2 of FIG. 8), “increased”. Besides, the “reduction in cyclin D1 by inducing the expression of DYRK” value in assay [3] (DYRK1B expression induced 16 hours, then compound 5 μM for 4 hours, lane 8 of FIG. 8) is listed as “corrected”; in assay [4] (DYRK2 expression induced 16 hours, then compound 5 μM for 4 hours, lane 12 of FIG. 8), “corrected”; in assay [5] (DYRKIA expression induced 16 hours, then compound 5 μM for 4 hours, lane 4 of FIG. 8), “corrected”.
On to `CCN1/C(=C/C(C)=O)Sc2ccc3c(c21)CCO3` [compound 1, (Z)-1-[1-ethyl-7,8-dihydrobenzofuro[4,5-d]thiazol-2(1H)-ylidene]propan-2-one], for which, in assay [6], the “inhibition of the CLK3 activity” value was 80%. Besides, in assay [2], the “tau phosphorylation caused by the cold water stress (brain)” value is on record as “inhibited”. Further, the “inhibition of the CLK1 activity” value in assay [7] amounted to 99%. In assay [8], the “inhibition of the DYRK1A activity” value was determined as 98%. Also, the “inhibition of the DYRK3 activity” value in [9] was found to be 100%. Also, the “inhibition of the DYRK2 activity” value in assay [10] worked out at 100%. Also, the “inhibition of the CLK2 activity” value in assay [11] turned out to be 98%. Also, the “inhibition of the DYRKIB activity” value in [12] amounted to 99%.
`COc1ccc2c([nH]c3c(C)nccc32)c1C#C[Si](C)(C)C` [compound 3, 8-[2-(trimethylsilyl)ethynyl]harmine]: the “tau phosphorylation in cells” value in assay [13] is “inhibited”.
